Consider one compound from paper PMC10542788, “Discovery of a cystathionine γ-lyase (CSE) selective inhibitor targeting active-site pyridoxal 5′-phosphate (PLP) via Schiff base formation” (Scientific Reports, 2023).

“Also recorded” adds a separate entry of the source.

One assay deals with T1, rCBS (Rattus norvegicus, UniProt P32232).
T1 construct: GST (N); HA (C); made in house; host or cells: E. coli BL21
T1 sequence (P32232 1-561): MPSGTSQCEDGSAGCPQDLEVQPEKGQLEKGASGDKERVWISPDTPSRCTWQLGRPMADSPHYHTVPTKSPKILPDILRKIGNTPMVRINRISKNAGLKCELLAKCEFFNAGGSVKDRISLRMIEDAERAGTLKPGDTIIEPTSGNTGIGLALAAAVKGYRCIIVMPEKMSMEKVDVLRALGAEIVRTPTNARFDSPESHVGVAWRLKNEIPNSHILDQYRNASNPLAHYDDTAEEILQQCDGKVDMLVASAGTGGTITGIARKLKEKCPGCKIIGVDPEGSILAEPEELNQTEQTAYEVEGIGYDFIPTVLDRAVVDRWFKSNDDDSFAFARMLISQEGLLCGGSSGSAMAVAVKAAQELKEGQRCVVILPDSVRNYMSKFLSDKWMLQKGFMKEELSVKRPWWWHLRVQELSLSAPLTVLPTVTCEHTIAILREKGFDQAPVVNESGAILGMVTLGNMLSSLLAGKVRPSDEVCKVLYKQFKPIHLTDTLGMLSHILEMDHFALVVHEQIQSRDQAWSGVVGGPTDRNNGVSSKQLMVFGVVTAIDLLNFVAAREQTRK
The assay can be described thus: rCBS inhibition, HSip-1 fluorescence. The settings on record: 30 µM. The assay is classed as biochemical. The procedure:
The selectivity of 1, 2 and PAG for rCSE over other RSS-producing enzymes, CBS and 3MST, was examined (Fig. 4a). CBS is a PLP-dependent enzyme, like CSE, and produces H2S from cysteine and homocysteine as substrates. 3MST is also an H2S-producing enzyme, but is not PLP-dependent and uses 3-mercaptopyruvate as a substrate. The amount of H2S produced by CBS or 3MST was evaluated in the presence or absence of the inhibitor by measuring the fluorescence intensity of HSip-1. […] We also examined the inhibitory activity towards two other PLP-dependent enzymes, MGL and ALT. MGL metabolizes L-methionine to α-ketobutyric acid, methanethiol and ammonia, and is inhibited by PAG[14]. MGL also produces H2S from homocysteine as a substrate, and this activity of MGL can be measured by fluorescence detection with HSip-1. […] The enzymatic activity of ALT can be assessed by means of a coupled assay using the reduction of pyruvate to L-lactate with lactate dehydrogenase and NADH and measuring the change in absorption of NADH.
10 µL of 2.5 mM cysteine and 2.5 mM homocysteine in 30 mM HEPES (pH 7.4) was added to 10 µL of a solution containing 20 µg/mL rCBS, 50 µM PLP, 100 µM SAM, 1 µM HSip-1, 0.005% tween 20, 0.5% DMSO and various concentrations of the inhibitors. The mixture was incubated at 37 °C for 2 h and the fluorescence intensity of HSip-1 was measured with a microplate reader.

Assay [1] addresses T2, rCSE (Rattus norvegicus, UniProt P18757). The assay can be described thus: rCSE inhibition, cysteine persulfide (sulfane sulfur) production from cystine detected with SSP4. The assay is classed as biochemical. The arrangement: His-tag (C); made in house; host or cells: E. coli BL21. Particulars: cystine as substrate, SSP4 probe, mean ± S.E. The procedure:
We further examined whether or not 1 can inhibit the production of cysteine persulfide from cystine by CSE (Supplementary Fig. S5)[10], using a commercially available sulfane sulfur-detecting probe, SSP4.
10 µL of 0.5 mM cystine solution in 30 mM HEPES (pH 7.4) was added to 10 µL of solution containing 50 µg/mL rCSE, 100 µM PLP, 1 µM SSP4 (Dojindo), 0.005% tween 20 and various concentrations of the inhibitor (0.5% DMSO as a cosolvent). The mixture was incubated at 37 °C for 60 min and the fluorescence intensity of SSP4 was measured with a microplate reader.

The target of assay [2] is T2, rCSE. The experiment in a line: SPR measurement of binding between rCSE and 1. The arrangement: made in house; host or cells: E. coli. The procedure: Moreover, we performed surface plasmon resonance (SPR) assay to investigate the binding kinetics between rCSE and 1. rCSE was immobilized on a sensor chip of an SPR sensor, and various concentrations (6.25, 12.5, 25 and 50 µM) of 1 were flowed over it. The sensor chip was flushed with buffer solution not containing 1 before each concentration change of 1. […] In SPR binding studies between small molecule ligands and proteins, the washing process often markedly decreases the SPR signal.
The interaction between rCSE and oxamic hydrazide was analyzed using a Biacore T200 SPR instrument (Cytiva). A CM7 Biacore sensor chip (Cytiva) was used to immobilize rCSE at approximately 35,000 RU after activation with N-hydroxysuccinimide/N-ethyl-N′-(3-dimethylaminopropyl) carbodiimide hydrochloride. Acetate buffer (pH 5.5) was used to dilute rCSE. The activated surface of the sensor was blocked with 1 M ethanolamine. The interaction between rCSE and oxamic hydrazide was measured by injecting increasing concentrations of oxamic hydrazide into the sensor chip. The interaction was measured in 20 mM HEPES (pH 7.4) containing 150 mM NaCl, 0.5 mM TCEP, 100 µM PLP, 0.005% (v/v) Tween-20 and 1% (v/v) DMSO as a cosolvent.
In general terms: In SPR one partner is held on a chip, and binding of the other changes the refractive index at the surface.

The target of assay [3] is T2, rCSE. The assay can be described thus: Live-cell fluorescence imaging of sulfane sulfur with SSP4 in rCSE-expressing COS-7 cells. It counts as cell-based. The settings on record: COS-7 cells expressing rCSE, 1000 µM. The procedure: Finally, we evaluated the inhibitory activity of 1 towards rCSE in cells. […] So, we prepared COS-7 cells expressing rCSE, treated them with 1 at various concentrations (0, 100, 300 and 1000 µM), and performed fluorescence imaging of sulfane sulfur with SSP4. […] Thus, this inhibitor is available for live-cell experiments.
COS-7 cells were maintained in Dulbecco’s modified Eagle’s medium (DMEM) containing 10% fetal calf serum (FBS) and 1% penicillin streptomycin in a humidified atmosphere at 37 °C. The cells were seeded in 6 cm dishes at a density of 5 × 10^5 cells per dish. Transient transfection was performed with Lipofectamine 3000 (Thermo Fisher Scientific). Briefly, 2.5 µg plasmid, 5 µL P3000 reagent, and 7.5 µL Lipofectamine 3000 reagent were mixed in Opti-MEM, and the mixture was added to the cells. After incubation for 24 h, transfected COS-7 cells were re-seeded in eight-well chamber slides (µ-Slide 8 well high, ibidi GmbH) at a density of 4 × 10^4 cells per well. […] Excess probe was removed and the cells were washed with HBSS, then fluorescence images were captured using a Nikon A1R + confocal laser scanning microscope with an ECLIPSE Ti-E inverted microscope and a 20 × objective lens. […] Fluorescence intensity of images was calculated by using NIS-Elements software (Nikon).

A word on the IC50: it is the concentration at which inhibition is half-maximal. Low values mean inhibition by little substance, high ones a need for much substance.

T2 sequence (P18757 whole entry): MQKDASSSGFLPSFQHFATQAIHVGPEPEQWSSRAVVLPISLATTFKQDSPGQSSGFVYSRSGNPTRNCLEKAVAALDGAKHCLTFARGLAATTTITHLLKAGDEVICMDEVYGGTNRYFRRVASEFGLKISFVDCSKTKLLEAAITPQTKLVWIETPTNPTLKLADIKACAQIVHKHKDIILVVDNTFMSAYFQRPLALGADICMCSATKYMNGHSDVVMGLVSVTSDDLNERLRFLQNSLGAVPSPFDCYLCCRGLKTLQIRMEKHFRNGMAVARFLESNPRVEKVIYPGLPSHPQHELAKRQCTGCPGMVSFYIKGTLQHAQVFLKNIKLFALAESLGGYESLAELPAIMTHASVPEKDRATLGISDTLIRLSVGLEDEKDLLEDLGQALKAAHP

`NNC(=O)C(N)=O` [Compound 1, oxamic hydrazide]: the “selectivity for CSE over CBS” value at rCBS was “high selectivity for CSE over CBS”. The compound further gave an IC50 against rCSE [1] of 33 ± 3 µM. For the same compound, the “binding to rCSE (SPR)” value at rCSE [2] (6.25, 12.5, 25 and 50 µM) is reported as “increased concentration-dependently”. In addition, the “dissociation from rCSE during washing (SPR)” value at rCSE [2] (washing with buffer not containing 1) is “little dissociation occurs; also recorded: no dissociation”. Moreover, on rCSE [3], the “SSP4 fluorescence intensity (sulfane sulfur) in cells” value was “almost completely suppressed”.
